Where a SMILES comes first, the peptide text is derived from it. [ ]: non-standard residue; d: D form. The star is where a group is joined. Stearoyl = CCCCCCCCCCCCCCCCCC(=O)*
Key:
[1] = biological target: T1, rat thrombin (Rattus norvegicus, UniProt P18292); assay: Inhibition of rat thrombin-catalyzed hydrolysis of Chromozym TH; format: biochemical; details: 25 °C, pH 7.4
T1 construct: purchased Sigma

[2] = tested on: rat carotid artery thrombosis; assay: Rat carotid artery thrombosis (occlusion time); format: in vivo; details: for occlusion time (OT): 30 min after administration
Description: The carotid artery thrombosis in rats was induced by the method developed by Hladovec with minor modifications. At first, male SD Rats (180 ~ 220 g) were randomly divided into 5 groups (n = 8) and anesthetized by i.p. 20% ethyl urethane (1 g/kg). The right carotid artery was first carefully separated to give a 1.5 cm long open access, and then the stimulating electrode and the temperature electrode of BT 87–3 thrombosis radiometer (Baotou medical college, China) were linked to both ends of the artery. […] The time from the initiation of electric stimulation to the sudden drop of carotid temperature was recorded as occlusion time (OT), or thrombus formation time.

[3] = tested on: rat plasma; assay: Time course of APTT in rat plasma after peptide administration; format: in vivo
Procedure: Peptides were administrated to male SD rats (280–320 g) via tail veins. At different time points (0, 20, 40, 60, 90, 120, 180, and 240 min; or 0, 1, 2, 3, 4, 5, 8, and 12 h) after peptide injection, blood samples were collected via retroorbital vein plexus, and then mixed with 3.2% sodium citrate solution in a ratio of 9:1 (v/v). The resulting mixtures were centrifuged at 2,000 g for 15 min at 4 °C. The APTT of rat plasma was determined on a coagulation analyzer (Coatron M1, TECO, Germany) following the manual protocol. Briefly, a cuvette with 0.05 mL rat plasma was first warmed to 37 °C for 2 min, and then 0.05 mL of the warmed APTT reagent was added, followed by incubating at 37 °C for 3 min. Afterwards, 50 μL calcium chloride solution (0.25 M) was added into the cuvette, and the clotting time of plasma samples was recorded immediately with the coagulation analyser (APTT).

[4] = tested on: rat plasma; assay: TT, PT and APTT of rat blood after administration; format: in vivo
Procedure: Forty-eight male SD rats (180 ~ 220 g) were randomly divided into six groups (n = 8) and anesthetized by i.p.20% ethyl urethane (1 g·kg^−1). […] Blood samples were obtained from the abdominal aorta, and then mixed with 3.8% sodium citrate solution in a ratio of 9:1 (v/v). The resulting samples were centrifuged at 3000 rpm for 15 min at 18 °C. TT, PT and APTT were determined according to the kit protocol (Sunbio Ltd., Shanghai) on a C2000 coagulometer (Precil, Beijing).

[5] = biological target: T2, human thrombin (Homo sapiens, UniProt P00734); assay: Degradation mediated by human thrombin (HPLC); format: in vitro ADME; details: human thrombin (69 NIH/mL) in Tris-HCl buffer, pH 8, 69 NIH/ml human thrombin, peptide 0.41 mM, 37 °C, read-out: peptide remained after reaction with human thrombin
T2 construct: purchased National Institute for the Control of Pharmaceutical and Biological Products (Beijing, China)
Procedure: The catalytic cleavage of peptides mediated by thrombin was also examined using the same method. Specifically, a peptide solution (0.41 mM) was first incubated with thrombin (69 NIH/mL) in Tris-HCl buffer (70 mM Tris HCl, NaCl 50 mM, pH = 8.0) at 37 °C.

## CCCCCCCCCCCCCCCCCC(=O)NCCCC[C@H](NC(=O)CNC(=O)[C@@H]1CCCN1C(=O)[C@H](CCCNC(=N)N)NC(=O)[C@@H]1CCCN1C(=O)[C@H](N)Cc1ccccc1)C(=O)NCC(=O)NCC(=O)N[C@@H](CCC(N)=O)C(=O)NCC(=O)N[C@@H](CC(=O)O)C(=O)N[C@@H](Cc1ccccc1)C(=O)N[C@@H](CCC(=O)O)C(=O)N1CCC[C@H]1C(=O)N[C@H](C(=O)N1CCC[C@H]1C(=O)N[C@@H](CCC(=O)O)C(=O)N[C@@H](CC(=O)O)C(=O)N[C@@H](C)C(=O)N[C@@H](Cc1ccc(O)cc1)C(=O)N[C@@H](CC(=O)O)C(=O)N[C@@H](CCC(=O)O)C(N)=O)[C@@H](C)CC [Peptide S2] (H-[dF]PRPGK(Stearoyl)GGQGDFEPIPEDAYDE-NH2; N-terminus assumed)
[1]
  Ki: 15.2 ± 0.18 nM
[2]; 0.5 mg/kg
  occlusion time (OT): 979.88 ± 150.61 s
[2]; 1.0 mg/kg
  occlusion time (OT): 1063.75 ± 61.12 s
[2]; 1.0 mg/kg, OT at different time points
  duration of antithrombotic activity (OT): more than 8 h
[2]; 2.0 mg/kg
  occlusion time (OT): 1207.25 ± 137.82
[3]; after injection via tail vein, Fig. 1D
  APTT of rat plasma, time course: increased in the first 4 h, and then decreased
[3]; rat plasma after peptide administration
  duration of antithrombotic activity (APTT): more than 8 h
[4]; 0.5 mg/kg peptide S2, 30 min after administration
  antithrombotic activity (TT, PT, APTT) compared with references: superior to the 8 mg/kg hirulog-1 and 200 IU/kg heparin
[4]; 30 min after administration, sublingual vein
  TT, PT and APTT of rat blood: significantly elevate
[5]; 3 h
  remaining at 3 h, 0.41 mM: 93%
[5]; 5 h
  remaining at 5 h, 0.41 mM: 69%
